Data published in ChEMBL document CHEMBL4052698, “Design, synthesis and SAR of a novel series of heterocyclic phenylpropanoic acids as GPR120 agonists” (Bioorg Med Chem Lett, 2017).
Activity calls are given as the source filed them. The calls are words filed in the database; no cut-off is given here.

Experiments:
[1] = biological target: Free fatty acid receptor 4 (Homo sapiens, UniProt Q5NUL3); assay: Agonist activity at human GPR120 short splice variant expressed in HEK293 cells assessed as increase in intracellular calcium flux by Fluo-4 NW dye based FLIPR assay; assay type: functional, cell-based
[2] = biological target: T1, Free fatty acid receptor 4 (Homo sapiens, UniProt Q5NUL3); assay: Agonist activity at human GPR120 expressed in CHO-K1 cells assessed as […] by DiscoveRx PathHunter beta-arrestin assay; assay type: functional, cell-based
T1 sequence (Q5NUL3 whole entry): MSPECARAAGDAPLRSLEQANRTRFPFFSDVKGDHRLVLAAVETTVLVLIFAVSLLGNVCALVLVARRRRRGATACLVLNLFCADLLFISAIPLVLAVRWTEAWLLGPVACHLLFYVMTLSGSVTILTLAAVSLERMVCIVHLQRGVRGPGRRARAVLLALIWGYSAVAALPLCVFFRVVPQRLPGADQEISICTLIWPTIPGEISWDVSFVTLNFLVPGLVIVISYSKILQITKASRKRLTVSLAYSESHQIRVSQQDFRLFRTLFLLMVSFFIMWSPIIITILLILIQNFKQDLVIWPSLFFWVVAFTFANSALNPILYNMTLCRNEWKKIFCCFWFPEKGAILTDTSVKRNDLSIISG

[3] = Stability in human liver microsomes assessed as parent compound remaining after 10 mins; assay type: ADME, microsome; conditions: read-out: Stability
[4] = Stability in mouse liver microsomes assessed as parent compound remaining after 10 mins; assay type: ADME, microsome; conditions: read-out: Stability
[5] = Stability in rat liver microsomes assessed as parent compound remaining after 10 mins; assay type: ADME, microsome; conditions: read-out: Stability
[6] = Protein binding in human plasma; assay type: ADME, cell-free; conditions: read-out: PPB (converted)
[7] = Protein binding in mouse plasma; assay type: ADME, cell-free; conditions: read-out: PPB (converted)
[8] = Protein binding in rat plasma; assay type: ADME, cell-free; conditions: read-out: PPB (converted)
[9] = Clearance in C57/black 6J mouse at 5 mg/kg, iv by LC-MS/MS method; assay type: ADME, organism-based; conditions: in vivo
[10] = Volume of distribution at steady state in C57/black 6J mouse at 5 mg/kg, iv by LC-MS/MS method; assay type: ADME, organism-based; conditions: in vivo, read-out: Vdss
[11] = Half life in C57/black 6J mouse at 20 mg/kg dosed as oral gavage by LC-MS/MS method; assay type: ADME, organism-based; conditions: in vivo
[12] = Cmax in C57/black 6J mouse at 20 mg/kg dosed as oral gavage by LC-MS/MS method; assay type: ADME, organism-based; design: dose 20 mg/kg, route oral; conditions: in vivo
[13] = AUClast in C57/black 6J mouse at 20 mg/kg dosed as oral gavage by LC-MS/MS method; assay type: ADME, organism-based; design: dose 20 mg/kg, route oral, time 0 - last; conditions: in vivo
[14] = (§1) Oral bioavailability in C57/black 6J mouse at 20 mg/kg by LC-MS/MS method; assay type: ADME, organism-based; conditions: C57/black 6J, in vivo
Mus musculus [15] = assay: Antidiabetic activity in C57bl/6J mouse assessed as reduction in blood glucose level at 10 mg/kg, po dosed 30 mins before glucose challenge by intraperitoneal glucose tolerance test; assay type: functional, organism-based
Mus musculus [16] = assay: Antidiabetic activity in C57bl/6J mouse assessed as reduction in blood glucose delta AUC level at 1 mg/kg, po dosed 30 mins before glucose challenge and measured 90 mins post glucose injection by intraperitoneal glucose tolerance test; assay type: functional; design: scale not given: the % may be the effect or the level left
Mus musculus [17] = assay: Antidiabetic activity in C57bl/6J mouse assessed as reduction in blood glucose delta AUC level at 3 mg/kg, po dosed 30 mins before glucose challenge and measured 90 mins post glucose injection by intraperitoneal glucose tolerance test; assay type: functional; design: scale not given: the % may be the effect or the level left
Mus musculus [18] = assay: Antidiabetic activity in C57bl/6J mouse assessed as reduction in blood glucose delta AUC level at 10 mg/kg, po dosed 30 mins before glucose challenge and measured 90 mins post glucose injection by intraperitoneal glucose tolerance test; assay type: functional; design: scale not given: the % may be the effect or the level left
Mus musculus [19] = assay: as §1; assay type: ADME, organism-based; conditions: in vivo
Mus musculus [20] = assay: Antidiabetic activity in C57bl/6J mouse assessed as reduction in blood glucose level at 1 to 10 mg/kg, po dosed 30 mins before glucose challenge by intraperitoneal glucose tolerance test; assay type: functional, organism-based
Mus musculus [21] = assay: Antidiabetic activity in C57bl/6J mouse assessed as reduction in blood glucose delta AUC level at 1 to 10 mg/kg, po dosed 30 mins before glucose challenge by intraperitoneal glucose tolerance test; assay type: functional, organism-based

Work on `CCc1ccc(-c2ccsc2COc2ccc(CCC(=O)O)c(C)c2C)cc1` yielded an EC50 [1] of 160 nM and an EC50 [2] of 900 nM.
Work on `CCc1ccc(-c2sncc2COc2ccc(CCC(=O)O)c(C)c2C)cc1` yielded an EC50 [1] of 190 nM.
`O=C(O)CCc1cc(F)c(OCc2c(-c3ccc(Br)cc3)noc2C(F)(F)F)c(F)c1` showed an EC50 [1] of 120 nM, a remaining at 10 min [3] of 105% and a remaining at 10 min [4] of 94.1%. For the same molecule, the remaining at 10 min [5] was 72.3%.
Work on `Cc1c(CCC(=O)O)ccc(OCc2csnc2-c2ccc(Cl)cc2)c1C` yielded an EC50 [1] of 217 nM.
`Cc1ccc(-c2noc(C(F)(F)F)c2COc2c(F)cc(CC(C)C(=O)O)cc2F)cc1` (centres undefined) showed an EC50 [1] of 110 nM, an EC50 [2] of 160 nM and a remaining at 10 min [3] of 93%. For the same molecule, the remaining at 10 min [4] was 86.3% and the remaining at 10 min [5] was 54.3%.
With `Cc1c(CCC(=O)O)ccc(OCc2conc2-c2ccc(Cl)cc2)c1C` the EC50 [1] was 1440 nM and the EC50 [2] was 2760 nM.
Molecule `O=C(O)CCc1ccc(OCc2c(-c3ccc(Cl)cc3)noc2C(F)(F)F)c(F)c1F` has an EC50 [1] of 670 nM, an EC50 [2] of 140 nM and a remaining at 10 min [3] of 99.6%. For the same molecule, the remaining at 10 min [4] was 109% and the remaining at 10 min [5] was 106%.
For `Cc1c(CCC(=O)O)ccc(OCc2cnnn2-c2ccc(Cl)cc2)c1C`, the EC50 [1] was > 5000 nM.
With `O=C(O)CCc1cc(F)c(OCc2c(-c3ccc(Cl)cc3)noc2C(F)(F)F)c(F)c1` the EC50 [1] was 71 nM, the EC50 [2] was 160 nM and the remaining at 10 min [3] was 113%. For the same molecule, the remaining at 10 min [4] was 105%, the remaining at 10 min [5] was 98.9% and the fraction unbound [6] was 0.0007. The fraction unbound [7] was 0.0014, the fraction unbound [8] was 0.0019 and the clearance [9] was 7.18 mL/min/kg. It also gave a Vd [10] of 1.26 L/kg, a half-life [11] of 124 min and a Cmax [12] of 12700 ng/mL. For the same molecule, the AUC(0-t) [13] was 43200 ng·h/mL, the bioavailability [14] was 93% and the Activity (Mus musculus [15]) was “Active”. The Activity (Mus musculus [16]) was 20%, the Activity (Mus musculus [17]) was 23% and the Activity (Mus musculus [18]) was -56%.
`O=C(O)CCc1cc(F)c(OCc2c(-c3ccccc3)noc2C(F)(F)F)c(F)c1` gave an EC50 [1] of 170 nM, an EC50 [2] of 69 nM and a remaining at 10 min [3] of 95.6%. It also gave a remaining at 10 min [4] of 93%, a remaining at 10 min [5] of 110% and a fraction unbound [6] of 0.0017. For the same molecule, the fraction unbound [7] was 0.0047, the fraction unbound [8] was 0.0122 and the Vd [10] was 0.336 L/kg. The half-life [11] was 155 min and the F (Mus musculus [19]) was 49.5%.
`CCc1onc(-c2ccc(Cl)cc2)c1COc1ccc(CCC(=O)O)c(C)c1C` showed an EC50 [1] of 740 nM, an EC50 [2] of 400 nM and a remaining at 10 min [3] of 66.3%. The remaining at 10 min [4] was 50.2% and the remaining at 10 min [5] was 45.6%.
With `O=C(O)CCc1cc(F)c(OCc2c(-c3ccc(F)cc3)noc2C(F)(F)F)c(F)c1` the EC50 [1] was 150 nM, the EC50 [2] was 230 nM and the remaining at 10 min [3] was 103%. The remaining at 10 min [4] was 119% and the remaining at 10 min [5] was 66.2%.
Work on `Cc1c(CCC(=O)O)ccc(OCc2ccnn2-c2ccc(Cl)cc2)c1C` yielded an EC50 [1] of 610 nM and an EC50 [2] of 2030 nM.
`Cc1c(CCC(=O)O)ccc(OCc2c(-c3ccc(Cl)cc3)noc2C(F)(F)F)c1C` gave an EC50 [1] of 680 nM, an EC50 [2] of 160 nM and a remaining at 10 min [3] of 80.9%. For the same molecule, the remaining at 10 min [4] was 91.2% and the remaining at 10 min [5] was 68%.
Work on `O=C(O)CCc1cc(F)c(OCc2c(-c3ccc(C4CC4)cc3)noc2C(F)(F)F)c(F)c1` yielded an EC50 [1] of 170 nM.
Molecule `Cc1c(CCC(=O)O)ccc(OCc2cccn2-c2ccc(Cl)cc2)c1C` has an EC50 [1] of 145 nM and an EC50 [2] of 930 nM.
With `O=C(O)CCc1ccc(OCc2c(-c3ccccc3)noc2C(F)(F)F)cc1` the EC50 [1] was 150 nM.
Work on `CCc1ccc(-c2cscc2COc2ccc(CCC(=O)O)c(C)c2C)cc1` yielded an EC50 [1] of 142 nM.
With `O=C(O)CCc1cc(F)c(OCc2c(-c3ccc(F)cc3Cl)noc2C(F)(F)F)c(F)c1` the EC50 [1] was 71 nM, the EC50 [2] was 290 nM and the remaining at 10 min [3] was 108%. For the same molecule, the remaining at 10 min [4] was 99.3% and the remaining at 10 min [5] was 92%.
With `Cc1onc(-c2ccc(Cl)cc2)c1COc1ccc(CCC(=O)O)c(C)c1C` the EC50 [1] was 270 nM and the EC50 [2] was 760 nM.
For `Cc1c(CCC(=O)O)ccc(OCc2nnnn2-c2ccc(Cl)cc2)c1C`, the EC50 [1] was > 5000 nM.
Work on `CCc1ccc(-c2noc(C(F)(F)F)c2COc2c(F)cc(CCC(=O)O)cc2F)cc1` yielded an EC50 [1] of 57 nM, an EC50 [2] of 60 nM and a fraction unbound [6] of 0.0006. It also gave a fraction unbound [7] of 0.0008, a fraction unbound [8] of 0.0011 and a clearance [9] of 27.1 mL/min/kg. The Vd [10] was 0.898 L/kg, the half-life [11] was 61.8 min and the Cmax [12] was 7670 ng/mL. For the same molecule, the AUC(0-t) [13] was 9660 ng·h/mL, the bioavailability [14] was 78.7% and the Activity (Mus musculus [20]) was “Dose-dependent effect”. The Activity (Mus musculus [21]) was “Dose-dependent effect”, the Activity (Mus musculus [16]) was 30% and the Activity (Mus musculus [17]) was -35%. The Activity (Mus musculus [18]) was -54%.
Molecule `Cc1cc(OCc2c(-c3ccc(Cl)cc3)noc2C(F)(F)F)c(F)cc1CCC(=O)O` has an EC50 [1] of 410 nM.
For `Cc1c(CCC(=O)O)ccc(OCc2nccn2-c2ccc(Cl)cc2)c1C`, the EC50 [1] was > 5000 nM.
For `COc1ccc(-c2noc(C(F)(F)F)c2COc2c(F)cc(CCC(=O)O)cc2F)cc1`, the EC50 [1] was 1130 nM.
With `O=C(O)CCc1ccc(OCc2c(-c3ccc(Cl)cc3)noc2C(F)(F)F)cc1C(F)(F)F` the EC50 [1] was 1450 nM.
Molecule `CCCc1onc(-c2ccc(Cl)cc2)c1COc1ccc(CCC(=O)O)c(C)c1C` has an EC50 [1] of 1060 nM, an EC50 [2] of 130 nM and a remaining at 10 min [3] of 79.3%. It also gave a remaining at 10 min [4] of 48.3% and a remaining at 10 min [5] of 38.4%.
In the case of `CCc1ccc(-n2nccc2COc2ccc(CCC(=O)O)c(C)c2C)cc1`, the EC50 [1] is reported as 520 nM and the EC50 [2] is reported as 1150 nM.
Work on `Cc1ccc(-c2noc(C(F)(F)F)c2COc2c(F)cc(CCC(=O)O)cc2F)cc1` yielded an EC50 [1] of 120 nM, an EC50 [2] of 180 nM and a remaining at 10 min [3] of 64.4%. For the same molecule, the remaining at 10 min [4] was 84.5% and the remaining at 10 min [5] was 37.9%.
`Cc1c(CCC(=O)O)ccc(OCc2ncoc2-c2ccc(Cl)cc2)c1C` showed an EC50 [1] of 1750 nM.
For `O=C(O)CCc1cc(F)c(OCc2c(-c3ccc(C(F)(F)F)cc3)noc2C(F)(F)F)c(F)c1`, the EC50 [1] was 340 nM and the EC50 [2] was 190 nM.
With `Cc1c(CCC(=O)O)ccc(OCc2c(-c3ccc(Cl)cc3)noc2C2CC2)c1C` the EC50 [1] was 1070 nM and the EC50 [2] was 1090 nM.
Work on `Cc1c(CCC(=O)O)ccc(OCc2c(-c3ccc(Cl)cc3)noc2-c2ccccc2)c1C` yielded an EC50 [1] of 2830 nM.
Molecule `Cc1noc(-c2ccc(Cl)cc2)c1COc1ccc(CCC(=O)O)c(C)c1C` has an EC50 [1] of 350 nM and an EC50 [2] of 810 nM.
Work on `Cc1c(CCC(=O)O)ccc(OCc2ccccc2-c2ccc(Cl)cc2)c1C` yielded an EC50 [1] of 220 nM.
For `Cc1c(CCC(=O)O)ccc(OCc2scnc2-c2ccc(Cl)cc2)c1C`, the EC50 [1] was 81 nM.
With `CCc1ccc(-n2cccc2COc2ccc(CCC(=O)O)c(C)c2C)cc1` the EC50 [1] was 100 nM and the EC50 [2] was 750 nM.
